Data: publication PMC11855827, “High-Throughput Screening of Five Compound Libraries for Anthelmintic Activity and Toxicity Leads to the Discovery of Two Flavonoid Compounds” (International Journal of Molecular Sciences, 2025)
“And” between values parts separate entries of the source, which are not always exact repeats. Identical values can stand only once. Like-named read-outs stand apart in the source and are kept apart here.

Test system: C. elegans
[1] = Table S2, C. elegans SS assay, 110 μM, 0 h, averages of 4 data points
[2] = Table S2, C. elegans SS assay, 110 μM, 24 h, averages of 4 data points

## C[C@@H]1O[C@@H](O[C@H]2[C@H](Oc3c(-c4ccc(O)cc4)oc4cc(O)cc(O)c4c3=O)O[C@H](CO)[C@@H](O)[C@@H]2O)[C@H](O)[C@H](O)[C@H]1O [Kaempferol‐3‐O‐glucorhamnoside]
[1]
  Percentage of motility inhibition 0 h: 5%
[2]
  Percentage of motility inhibition 24 h: 2%

## Avermectin B1 [reference compound]
  Inhibition (%) 110 μM (0 h): 81 ± 1%
  Inhibition (%) 110 μM (24 h): 42 ± 1%
[2]
  Percentage of motility inhibition 24 h: 41%

## CC1(C)CC[C@]2(C(=O)O)CC[C@]3(C)C(=CC[C@@H]4[C@@]5(C)C[C@H](O)[C@H](O)[C@@](C)(CO)[C@@H]5CC[C@]43C)[C@@H]2C1 [Bayogenin]
[1]
  Percentage of motility inhibition 0 h: 2%
[2]
  Percentage of motility inhibition 24 h: 5%

## CN[C@H](CC(C)C)C(=O)N[C@H]1C(=O)N[C@@H](CC(N)=O)C(=O)N[C@H]2C(=O)N[C@H]3C(=O)N[C@H](C(=O)N[C@H](C(=O)O)c4cc(O)cc(O)c4-c4cc3ccc4O)[C@H](O[C@H]3C[C@](C)(N)[C@@H](O)[C@H](C)O3)c3ccc(c(Cl)c3)Oc3cc2cc(c3O[C@@H]2O[C@H](CO)[C@@H](O)[C@H](O)[C@H]2O[C@H]2C[C@](C)(NCc3ccc(-c4ccc(Cl)cc4)cc3)[C@@H](O)[C@H](C)O2)Oc2ccc(cc2Cl)[C@H]1O.O=P(O)(O)O.O=P(O)(O)O [Oritavancin (diphosphate)]
[1]
  Percentage of motility inhibition 0 h: 34%
[2]
  Percentage of motility inhibition 24 h: 8%

## Trigonelline (chloride)
110 µM
  Percentage of motility inhibition 0 h: 2%
  Percentage of motility inhibition 24 h: 17%

## COc1ccc(C[C@H](N)C(=O)N[C@H]2[C@@H](O)[C@H](n3cnc4c(N(C)C)ncnc43)O[C@@H]2CO)cc1.Cl.Cl [Puromycin (D ihydrochloride)]
[1]
  Percentage of motility inhibition 0 h: 13%
[2]
  Percentage of motility inhibition 24 h: 14%

## Amarogentin
[1]
  Percentage of motility inhibition 0 h: 2%
[2]
  Percentage of motility inhibition 24 h: 8%

## Cc1c(C)c2c(c(C)c1O)CC[C@@](C)(CCC[C@H](C)CCC[C@H](C)CCCC(C)C)O2 [α-Vitamin E]
[1]
  Percentage of motility inhibition 0 h: 53%
[2]
  Percentage of motility inhibition 24 h: 11%

## CC(=O)O.CC(=O)O.NC(=N\CCCCCC/N=C(N)/N=C(\N)Nc1ccc(Cl)cc1)/N=C(\N)Nc1ccc(Cl)cc1 [Chlorhexidine (diacetate)]
[1]
  Percentage of motility inhibition 0 h: 38%
[2]
  Percentage of motility inhibition 24 h: 62%

## CC(=O)O[C@@]12CO[C@@H]1C[C@@H](O)[C@@]1(C)C(=O)[C@H](O)C3=C(C)[C@@H](OC(=O)[C@H](O)[C@@H](NC(=O)c4ccccc4)c4ccccc4)C[C@@](O)([C@@H](OC(=O)c4ccccc4)[C@H]21)C3(C)C [7-Epi 10-desacetyl paclitaxel]
[1]
  Percentage of motility inhibition 0 h: 0%
[2]
  Percentage of motility inhibition 24 h: 26%

## COc1ccc2c(c1OC)O[C@H]1c3ccc(O[C@@H]4O[C@H](CO)[C@@H](O)[C@H](O)[C@H]4O)cc3OC[C@@H]21 [Methylnissolin‐3‐O‐glucoside]
[1]
  Percentage of motility inhibition 0 h: 8%
[2]
  Percentage of motility inhibition 24 h: 7%

## CC[C@]1(O)C[C@@H]2CN(CCc3c([nH]c4ccccc34)[C@@](C(=O)OC)(c3cc4c(cc3OC)N(C)[C@H]3[C@@](O)(C(=O)OC)[C@H](OC(C)=O)[C@]5(CC)C=CCN6CC[C@]43[C@@H]65)C2)C1.O=S(=O)(O)O [Vinblastine (sulfate)]
[1]
  Percentage of motility inhibition 0 h: 0% and 8%
[2]
  Percentage of motility inhibition 24 h: 0% and 1%

## CCC[C@@H]1C[C@@H](C(=O)N[C@@H]([C@H]2O[C@H](SC)[C@H](O)[C@@H](O)[C@H]2O)[C@@H](C)O)N(C)C1.Cl.O [Lincomycin (hydrochloride hydrate)]
[1]
  Percentage of motility inhibition 0 h: 1%
[2]
  Percentage of motility inhibition 24 h: 0%

## O=C(CO)[C@@H](O)[C@H](O)[C@H](O)CO [D-Fructose]
[2]
  Percentage of motility inhibition 24 h: 15%

## O=C([O-])CC(O)(CC(=O)[O-])C(=O)[O-].[Na+].[Na+].[Na+] [Citric acid (trisodium)]
[1]
  Percentage of motility inhibition 0 h: 8%
[2]
  Percentage of motility inhibition 24 h: 2%

## COc1ccc(-c2cc(=O)c3c(O)cc(O[C@@H]4O[C@H](CO)[C@@H](O)[C@H](O)[C@H]4O)cc3o2)cc1 [Tilianin]
[1]
  Percentage of motility inhibition 0 h: 13%
[2]
  Percentage of motility inhibition 24 h: 3%

## CC1(C)C=Cc2c(ccc(C(=O)/C=C/c3ccc(O)cc3)c2O)O1 [4‐Hydroxylonchocarpin]
[1]
  Percentage of motility inhibition 0 h: 11%
[2]
  Percentage of motility inhibition 24 h: 9%

## Cc1cc(CC(C)CC(C)(C)C)n(O)c(=O)c1.NCCO (centres unmarked) [Piroctone olamine]
[1]
  Percentage of motility inhibition 0 h: 5%
[2]
  Percentage of motility inhibition 24 h: 7%

## CSC(=O)OCC1=C[C@@H]2OC(=O)C3=CO[C@@H](O[C@@H]4O[C@H](CO)[C@@H](O)[C@H](O)[C@H]4O)[C@H]1[C@@H]32 [Paederoside]
[1]
  Percentage of motility inhibition 0 h: 9%
[2]
  Percentage of motility inhibition 24 h: 4%

## O=C(O)Cc1c[nH]c2ccccc12 [3‐Indoleacetic acid]
[1]
  Percentage of motility inhibition 0 h: 4%
[2]
  Percentage of motility inhibition 24 h: 11%

## CO/N=C(\C(=O)N[C@@H]1C(=O)N2C(C(=O)OCOC(=O)C(C)(C)C)=C(C)CS[C@H]12)c1csc(N)n1.Cl [Cefetamet pivoxil (hydrochloride)]
[1]
  Percentage of motility inhibition 0 h: 55%
[2]
  Percentage of motility inhibition 24 h: 17%

## COc1cc(C2Oc3ccc([C@H]4Oc5cc(O)cc(O)c5C(=O)[C@@H]4O)cc3OC2CO)ccc1O (some centres unmarked) [Isosilybin]
[1]
  Percentage of motility inhibition 0 h: 2%
[2]
  Percentage of motility inhibition 24 h: 0%

## CC1=C2C[C@H]3[C@@H](CC(=O)[C@H]4C[C@@H](O)CC[C@@]43C)[C@@H]2CC[C@]12O[C@@H]1C[C@H](C)CN[C@H]1[C@H]2C [Peimisine]
[1]
  Percentage of motility inhibition 0 h: 0%
[2]
  Percentage of motility inhibition 24 h: 0%

## N[C@@H](CCC(=O)O)C(=O)[O-].[Na+] [L-Glutamic acid (monosodium salt)]
[1]
  Percentage of motility inhibition 0 h: 1%
[2]
  Percentage of motility inhibition 24 h: 0%

## CC[C@H]1CN2CCc3cc(OC)c(OC)cc3[C@@H]2C[C@@H]1C[C@H]1NCCc2cc(OC)c(OC)cc21.Cl.Cl.O [Emetine (dihydrochloride hydrate)]
[1]
  Percentage of motility inhibition 0 h: 52%
[2]
  Percentage of motility inhibition 24 h: 7%

## COc1ccc(-c2oc3c(CC=C(C)C)c(O)cc(O)c3c(=O)c2O[C@@H]2O[C@@H](C)[C@H](O)[C@@H](O)[C@H]2O[C@@H]2O[C@H](CO)[C@@H](O)[C@H](O)[C@H]2O)cc1 [Sagittatoside A]
[1]
  Percentage of motility inhibition 0 h: 43%
[2]
  Percentage of motility inhibition 24 h: 12%

## COc1ccc(-c2cc(=O)c3c(O)cc(OC)cc3o2)cc1 [7,4'‐Di‐O‐methylapigenin]
[1]
  Percentage of motility inhibition 0 h: 0%
[2]
  Percentage of motility inhibition 24 h: 9%

## CCCCCC(=O)Oc1c(Br)cc(Br)cc1Br [2,4,6‐Tribromophenyl caproate]
[1]
  Percentage of motility inhibition 0 h: 48%
[2]
  Percentage of motility inhibition 24 h: 57%

## COc1cc(C2Oc3ccc(-c4cc(=O)c5c(O)cc(O)cc5o4)cc3OC2CO)ccc1O (racemic) [(Rac)‐Hydnocarpin]
[1]
  Percentage of motility inhibition 0 h: 7%
[2]
  Percentage of motility inhibition 24 h: 0%

## C[C@H]1CC[C@@H]2N(C1)C[C@H]1[C@@H]3C[C@H]4[C@@H](C[C@@H](O)[C@H]5C[C@@H](O)CC[C@@]54C)[C@@H]3CC[C@@H]1[C@]2(C)O [Isoverticine]
[1]
  Percentage of motility inhibition 0 h: 0%
[2]
  Percentage of motility inhibition 24 h: 0%

## Oc1cc(O)c2c(c1)O[C@@]1(c3ccc(O)c(O)c3)Oc3cc(O)c4c(c3[C@@H]2[C@H]1O)O[C@H](c1ccc(O)c(O)c1)[C@H](O)C4 [Procyanidin A2]
[1]
  Percentage of motility inhibition 0 h: 6%
[2]
  Percentage of motility inhibition 24 h: 3%

## Kansuiphorin C
[1]
  Percentage of motility inhibition 0 h: 5%
[2]
  Percentage of motility inhibition 24 h: 29%

## COc1cc2oc3cc(O)c(OC)c(CC=C(C)C)c3c(=O)c2c(O)c1CC=C(C)C [beta‐Mangostin]
[1]
  Percentage of motility inhibition 0 h: 30%
[2]
  Percentage of motility inhibition 24 h: 0%

## C[C@@H]1O[C@@H](O[C@H]2[C@H](O)[C@@H](O)[C@H](O[C@H]3CC[C@]4(C)[C@H]5CC=C6[C@@H]7CC(C)(C)CC[C@]7(CO)[C@@H](O)C[C@@]6(C)[C@]5(C)CC[C@H]4C3(C)C)O[C@@H]2CO[C@@H]2O[C@H](CO)[C@@H](O)[C@H](O)[C@H]2O)[C@H](O)[C@H](O)[C@H]1O [Saikosaponin F]
[1]
  Percentage of motility inhibition 0 h: 1%
[2]
  Percentage of motility inhibition 24 h: 0%

## CC(C)=CCC[C@](C)(O[C@@H]1O[C@H](CO[C@@H]2OC[C@@H](O)[C@H](O)[C@H]2O)[C@@H](O)[C@H](O)[C@H]1O)[C@H]1CC[C@]2(C)[C@@H]1[C@H](O)C[C@@H]1[C@@]3(C)CC[C@H](O)C(C)(C)[C@@H]3CC[C@]12C [Gypenoside XIII]
[1]
  Percentage of motility inhibition 0 h: 7%
[2]
  Percentage of motility inhibition 24 h: 13%

## O=C[C@H](O)[C@@H](O)[C@H](O)CO (racemic) [DL-Xylose]
[1]
  Percentage of motility inhibition 0 h: 0%
[2]
  Percentage of motility inhibition 24 h: 5%

## c1ccc2c(-c3nccs3)c[nH]c2c1 [Camalexin]
[1]
  Percentage of motility inhibition 0 h: 50%
[2]
  Percentage of motility inhibition 24 h: 27%

## C[C@H](CO[C@@H]1O[C@H](CO)[C@@H](O)[C@H](O)[C@H]1O)[C@H]1CC[C@@]2(CC[C@]3(C)[C@H](CC[C@@H]4[C@@]5(C)CC[C@H](O[C@@H]6O[C@H](CO)[C@@H](O)[C@H](O)[C@H]6O[C@@H]6O[C@H](CO)[C@@H](O)[C@H](O)[C@H]6O)[C@@](C)(CO)[C@@H]5CC[C@]43C)[C@H]2O)CO1 [Hosenkoside B]
[1]
  Percentage of motility inhibition 0 h: 7%
[2]
  Percentage of motility inhibition 24 h: 10%

## CCN1C[C@@]2(COC)[C@H]3[C@@H](OC)[C@H]4[C@@H]1[C@]3([C@@H](OC)C[C@H]2OC(C)=O)[C@@H]1C[C@@]2(O)[C@H](OC(=O)c3ccccc3)[C@@H]1[C@]4(OC(C)=O)[C@@H](O)[C@@H]2OC [Flaconitine]
[1]
  Percentage of motility inhibition 0 h: 13% and 5%

## COc1c(O[C@@H]2O[C@H](CO)[C@@H](O)[C@H](O)[C@H]2O)cc2oc(-c3ccc(O)cc3)cc(=O)c2c1O [Homoplantaginin]
[1]
  Percentage of motility inhibition 0 h: 19%
[2]
  Percentage of motility inhibition 24 h: 5%

## CC(C)=CCc1c(O)ccc(C(=O)[C@@H]2[C@@H](c3c(O)cc(O)c4c(=O)c(CC=C(C)C)c(-c5ccc(O)cc5O)oc34)C=C(C)C[C@H]2c2ccc(O)cc2O)c1O [Kuwanon H]
[1]
  Percentage of motility inhibition 0 h: 11%
[2]
  Percentage of motility inhibition 24 h: 23%

## CCOC(=O)c1c(C)n(C)c2ccc(O)cc12 [Mecarbinate]
[1]
  Percentage of motility inhibition 0 h: 38%
[2]
  Percentage of motility inhibition 24 h: 36%
